Consider three molecules from PMC9865903, “Improving the Antimycobacterial Drug Clofazimine through Formation of Organic Salts by Combination with Fluoroquinolones” (International Journal of Molecular Sciences, 2023).

A word on the IC50: it is the point on the concentration scale where inhibition reaches its midpoint. Broadly, the solubility is the concentration that dissolves in the medium under given conditions.

On the set-up of data set [1]: method as in PMID 7617530, PMID 35300192. The settings on record: due to poor solubility in aqueous/polar media; cited from earlier work.
A further data set concerns M. avium 2447 SmT. In words: Antimycobacterial activity in axenic culture, broth microdilution with resazurin. Format: cell-based. The settings on record: Mycobacterium avium, 168 h, 7 days at 37 °C, 4PL interpolation, parentheses = 95% confidence interval. On the procedure: The susceptibility of M. avium to the API-OSs and their parent drugs was first assessed in axenic culture to determine the IC50 of each test compound. To this end, the bacteria were incubated with increasing concentrations of the compounds for 7 days at 37 °C and their viability was assessed by the resazurin assay.
Mycobacterium avium 2447 smooth transparent (SmT) strain (kindly provided by Dr. F. Portaels, Institute of Tropical Medicine, Antwerp, Belgium) was grown to the mid-log phase in Middlebrook 7H9 medium (BD Difco^TM, Fisher Scientific, Porto Salvo, Portugal) containing 0.2% of glycerol (VWR International, Carnaxide, Portugal) and 10% of Albumin-Dextrose-Catalase (ADC, Merck KGaA, Darmstadt, Germany) supplement at 37 °C, as described previously.
The antimicrobial activity of the different compounds was assessed by broth microdilution, following the Clinical and Laboratory Standards Institute (CLSI) guidelines and as described previously, using stock solutions of the compounds in DMSO, due to the negligible solubility of Clf in water. Briefly, M. avium was grown in Middlebrook 7H9 medium to the exponential phase and 1 to 5 × 10^5 CFU/mL of bacteria was seeded in 96-well plates with increasing concentrations of the compounds. […] After 6 days of incubation, bacterial viability was assessed by resazurin reduction. Then, 10% (v/v) of resazurin (Sigma-Aldrich, St. Louis, MO, USA) at 2.5 mM in phosphate-buffered saline (PBS, Sigma-Aldrich, St. Louis, MO, USA) was added to each well, and after 24 h of incubation at 37 °C, the fluorescence of resorufin, resulting from the conversion of resazurin by metabolically active cells, was measured at λex = 530 nm and λem = 590 nm in a Synergy^TM Mx microplate reader from BioTek (Agilent Technologies Inc., Santa Clara, CA, USA) using the Gen5 software also from BioTek. The results are expressed as the percentage of the fluorescence obtained in experimental wells relative to the fluorescence obtained in nontreated wells.
The viability of both mycobacteria and host macrophages was determined by resazurin reduction as detailed above. […]
For orientation: In broth dilution the organism is exposed to a series of concentrations in liquid medium.

Data set [2] can be described thus: Toxicity to infected host macrophages, resazurin reduction. Format: cell-based, murine (C57BL/6 mice). The settings on record: male, C57BL/6, mouse; BMM infected with M. avium 2447 SmT, 5 days at 37 °C and 7% CO2, resazurin; 4PL interpolation; parentheses = 95% confidence interval; read-out: LC50. The protocol:
Considering that, after invading its mammalian host, M. avium replicates mainly inside macrophages, the toxicity of test compounds to infected murine bone marrow-derived macrophages (BMM) was also assessed. This was carried out by treating BMM infected with M. avium 2447 SmT with increasing concentrations of the test compounds for 5 days at 37 °C and 7% CO2. Macrophage viability was assessed through a resazurin reduction assay. As shown in Table 1 and Figure 4, though being more toxic to mammalian cells than their parent fluoroquinolones, the Clf-derived OSs seem less toxic to BMM than Clf itself. We are aware that the confidence intervals for LD50 values shown in Table 1 for Clf and its derived OSs have some degree of overlap which, alongside the large standard deviations depicted on the macrophage viability curves shown in Figure 4, are not statistically significant different.
Macrophages were derived from the bone marrow of male C57BL/6 mice bred at the i3S animal facility and infected with M. avium 2447 SmT as described previously. Immediately after infection, BMM were treated with different concentrations of each compound. Each condition was tested in triplicate. The intracellular growth of M. avium 2447 SmT was evaluated 5 days after infection, by colony-forming units (CFUs) assay, plating the bacteria in Middlebrook 7H10 agar (BD DifcoTM, Fisher Scientific, Porto Salvo, Portugal) supplemented with 10% Oleic Acid-Albumin-Dextrose-Catalase (OADC; Merck KGaA, Darmstadt, Germany) for at least 7 days at 37 °C. The viability of macrophages was determined by resazurin reduction as detailed above for mycobacteria.
The viability of both mycobacteria and host macrophages was determined by resazurin reduction as detailed above. IC50 (concentration that inhibits 50% of mycobacterial growth after 7 days of incubation) and LD50 (concentration that inhibits 50% of macrophage viability) values were interpolated by fitting the experimental data through a 4PL nonlinear sigmoidal curve using the GraphPad Prism software version 9 (GraphPad Software Inc., La Jolla, CA, USA). […]
In general terms: Alamar Blue is a resazurin reagent that responds to reducing activity.

The conditions of data set [3]: in vivo, po; cited from earlier work.
A short description of data set [4]: Net charge at physiological pH. The format is physicochemical. The conditions noted are these: at physiological pH 7.4. The protocol: Table 1 Physico-chemical properties and in vitro effects of the API-OSs and their parent drugs. The compounds were tested against both axenic cultures of M. avium 2447 SmT (IC50) and mammalian host cells (bone marrow-derived macrophages, BMM, LC50) infected with M. avium 2447 SmT. ^1. | column: Net Charge ^2

The next data set can be described thus: physchem. The settings on record: organic solvent or mixture. The text has this:
DMSO has been previously established as an adequate solvent for studies focused on Clf, including susceptibility testing on Mycobacteria.

For data set [5] the following is noted: cited from earlier work.
A short description of data set [6]: Simultaneous thermal analysis (STA: thermogravimetry with DSC). The format is physicochemical. The conditions noted are these: heating from room temperature to 500 °C at 5 °C/min, value in parentheses after melting point. The text has this:
Considering that thermal stability is an important issue for any API or derived formulation, both API-OSs were next tested by simultaneous thermal analysis (STA) which combines thermogravimetry with differential scanning calorimetry. Thermograms were obtained for the API-OSs and their parent fluoroquinolones (Figure 2), providing their respective melting points and decomposition temperatures. As shown in both Figure 2 and Table 1, the two new API-OSs have melting points lower than those of their respective parent APIs, as expected, but in all cases well above 100 °C, which is generally acknowledged as the threshold temperature separating common ILs from other types of GUMBOS. […] Therefore, the thermostability of this parent antimycobacterial drug is improved when it is forming an ionic pair with the selected fluoroquinolones.
The thermal stability of the compounds was evaluated using a Hitachi STA7200RV instrument (Scancsi, Vila Nova de Gaia, Portugal), following the manufacturer’s instructions. The compounds were subjected to heating from room temperature to 500 °C at a speed of 5 °C/min, obtaining the thermograms provided in Figure 2.

“And” between values parts separate entries of the source, which are not always exact repeats. Equal entries are not always repeated.

Turning to `CC(C)/N=c1\cc2n(-c3ccc(Cl)cc3)c3ccccc3nc-2cc1Nc1ccc(Cl)cc1` [Clf, clofazimine], in data set [1], the “Biopharmaceutics Classification System class” value is “class II”. The concentration for half-maximal inhibition (IC50) with M. avium 2447 SmT was 0.33 µM. For the same molecule, in data set [2], the CC50 at 5 days was 4.1 µM. Also, in data set [3], the “absorption rates in humans” value was 45 to 62%. The “Net Charge” value in data set [4] was “+1”. In the data set “physchem”, the solubility was 4800 µg/mL and 10200 µM. Also, the solubility in water result in data set [5] is reported as “virtually insoluble”. Moreover, the “Decomposition Temperature” value in data set [6] was 221.9 (258.0) °C.

Regarding `CCn1cc(C(=O)O)c(=O)c2cc(F)c(N3CCNCC3)cc21` [Nf, norfloxacin], the IC50 in the data set on M. avium 2447 SmT is 7.93 µM. Moreover, in data set [2], the CC50 at 5 days is above 100 µM. Further, the “Net Charge” value in data set [4] was −1. Moreover, the solubility in “physchem” is 11000 µg/mL and 34400 µM. The “Decomposition Temperature” value in data set [6] was 206.1 (222.0) °C.

`CC1COc2c(N3CCN(C)CC3)c(F)cc3c(=O)c(C(=O)O)cn1c23` (centres unmarked) [Of, ofloxacin]: the half-maximal inhibitory concentration (IC50) in the data set on M. avium 2447 SmT was determined as 3.85 µM. For the same molecule, the CC50 at 5 days in data set [2] is above 100 µM. The “Net Charge” value in data set [4] is −1. Further, the “Decomposition Temperature” value in data set [6] is 274.8 (318.8) °C.
